Source: patent publication US10561748B2, “Anthranilic acid derivatives” (priority 2014, dated 2020)
Like-named read-outs stand apart in the source and are kept apart here.

What was measured:
[1] = tested on: P-gp; assay: Apparent permeability in Caco-2 cells (BA/AB); assay type: in vitro ADME; details: human, BA/AB >2 = transported by P-gp, read-out: Apparent Permeability (B→A/A→B)
Method: Ligands displaying BA/AB >2 are transported while ligands having BA/AB <2 are not transported by P-gp.
Caco-2 cells were seeded onto a Millicell assay system (Millipore), where a cell monolayer is set in between a filter cell and a receiver plate, at a density of 10,000 cells/well. The culture medium was replaced every 48 h and the cells kept for 21 days in culture. The Trans Epithelial Electrical Resistance (TEER) of the monolayers was measured daily, before and after the experiment, using an epithelial voltohometer (Millicell-ERS). Generally, TEER values greater than 1000× for a 21 day culture, are considered optimal. Caco-2 cells were seeded onto a Millicell assay system (Millipore), where a cell monolayer is set in between a filter cell and a receiver plate, at a density of 10,000 cells/well. The culture medium was replaced every 48 h and the cells kept for 21 days in culture. The Trans Epithelial Electrical Resistance (TEER) of the monolayers was measured daily, before and after the experiment, using an epithelial voltohometer (Millicell-ERS). Generally, TEER values greater than 1000× for a 21 day culture, are considered. After 21 days of Caco-2 cell growth, the medium was removed from filter wells and from the receiver plate, which were filled with fresh MSS buffer (Invitrogen). […] The apparent permeability (Papp), in units of nm/s, was calculated.

[2] = target: T1, P-gp (Homo sapiens, UniProt P08183); assay: cell-based
Source text: (§1) • A. Three different cell lines have been employed: MDCK-P-gp (fluorescent probe Calcein-AM), MDCK-BCRP (florescent probe Rhodamine) and MDCK-MRP1 (fluorescent probe Calcein-AM). These cells overexpress stably human P-gp or BCRP or MRP1. • i.

[3] = Metabolic stability by rat liver microsomes; assay type: in vitro ADME
Method: Metabolic stability of compound of Formula la was evaluated by incubating test compounds with rat liver microsomes and monitoring parent disappearance within 30 mins using HPLC.
• Column: KINE IEX-C18 • Column temperature: 40° C. • Mobile phase: Gradient. A was 0.1% formic acid in water. B was MeCN. A:B 95:5 to 30:70 over 10 min, to 20:80 over 5 min. • Flow rate: 0.5 ml/min • Injection volume: 50 μL
FIG. 5 illustrated a Chromatogram of Formula la incubated with microsomes fraction only without NADPH regenerating system wherein 489.88 mAU*s represents ligand concentration after incubation Ccontrol. FIG. 6 illustrates a Chromatogram of compound of Formula 1a incubated in the presence of microsomes and NADPH regenerating system wherein 429.56 mAU*s represents ligand concentration Cparent.

[4] = Protein Plasma Binding (PPB) assay (TRANSIL); assay type: in vitro ADME, human; details: human serum albumin and human α1 acid glycoprotein (TRANSIL); for fraction unbound: estimation based on human serum albumin and human α1 acid glycoprotein, read-out: fb (fraction bound to plasma proteins) (converted); for Kd: human, read-out: kD (dissociation constant, plasma protein binding)
Method: (§2) Plasma protein binding is measured in terms of the dissociation constant KD: KD=[compound 1a] [P]/[compound 1a-P], wherein [compound 1a-P] is the concentration of compound of Formula 1a bound to the protein P and where [compound 1a] denotes the free concentration of compound of Formula 1a and [P] denotes the free concentration of protein. […] This means there is high free unbound radiotracer available to bind with the target protein for detection.
(§3) fb represents an estimation of the fraction bound to plasma proteins based on human serum albumin and human α1 acid glycoprotein. Binding to other low abundance plasma proteins like lipoproteins, transcortin, and sex hormone binding protein is not considered.
(§4) The TRANSIL Quality Index (TQI) is based on five independent measures derived from the data analysis. For each individual measure a partial quality score on a scale between 0 and 10 is attributed to the estimate. 0 represents lowest quality, while 10 represents highest quality. The final quality index is a weighted average of the partial quality scores.
(§5) Plasma protein binding is measured in terms of the dissociation constant KD: KD=[TQD]

[5] = tested on: plasma proteins based on human serum albumin and human α1 acid glycoprotein; assay: Protein Plasma Binding (PPB) assay (TRANSIL); assay type: in vitro ADME; details: read-out: kD (dissociation constant, plasma protein binding)
Method: as §2, §3, §4, §5

[6] = Metabolites (human microsomes), unchanged form; assay type: in vitro ADME
Source text: Metabolites (Human Microsomes)

[7] = target: T2, MRP1 (Homo sapiens, UniProt P33527); assay: Activity in MDCK-MRP1 cells, fluorescent probe Calcein-AM; assay type: cell-based
T2 construct: expressed in transfected cells; host or cells: MDCK-MRP1
Source text: as §1

[8] = Everted gut sac: crossing to mucosal compartment and stability; assay type: in vitro ADME
Method: The compound of Formula la has been inserted in serosal compartment of […] and for 120 mins has been tested: • 1. The concentration in mucosal compartment • 2. The stability in serosal/mucosal compartment

[9] = target: T1, P-gp; assay: ATP-ase cell depletion (luminescence) in MDCK-MDR1 cells; assay type: cell-based; parameters: expressed in transfected cells; host or cells: MDCK-P-gp (MDCK cells stably overexpressing human P-gp); details: at 1 μM, 2 h
Method: In order to establish the intrinsic mechanism of compound of Formula la in […] has been defined if it was able to deplete ATP. Compound able to deplete ATP can be considered P-gp substrate while ligand unable to deplete ATP is considered P-gp inhibitor.
The MDCK-MDR1 cells were seeded into 96-well microplate in 100 μL of complete medium at a density 2×10^4 cells/well. The plate was incubated overnight in a humidified atmosphere 5% CO2 at 37° C. The medium was removed and 100 μL of complete medium in the presence or absence of different concentrations of compound of Formula 1a was added. The plate was incubated for 2 h in a humidified atmosphere 5% CO2 at 37° C. Fifty microlitres of mammalian cell lysis solution was added to all wells and the plate was shaken for 5 min in an orbital shaker. Fifty microlitres of substrate solution was added to all wells and the plate was shaken for 5 min in an orbital shaker. The plate was dark adapted for 10 min and the luminescence was measured.

[10] = target: T3, BCRP (Homo sapiens, UniProt Q9UNQ0); assay: Activity in MDCK-BCRP cells, fluorescent probe Rhodamine; assay type: cell-based
T3 construct: expressed in transfected cells; host or cells: MDCK-BCRP
T3 sequence (Q9UNQ0 1-655): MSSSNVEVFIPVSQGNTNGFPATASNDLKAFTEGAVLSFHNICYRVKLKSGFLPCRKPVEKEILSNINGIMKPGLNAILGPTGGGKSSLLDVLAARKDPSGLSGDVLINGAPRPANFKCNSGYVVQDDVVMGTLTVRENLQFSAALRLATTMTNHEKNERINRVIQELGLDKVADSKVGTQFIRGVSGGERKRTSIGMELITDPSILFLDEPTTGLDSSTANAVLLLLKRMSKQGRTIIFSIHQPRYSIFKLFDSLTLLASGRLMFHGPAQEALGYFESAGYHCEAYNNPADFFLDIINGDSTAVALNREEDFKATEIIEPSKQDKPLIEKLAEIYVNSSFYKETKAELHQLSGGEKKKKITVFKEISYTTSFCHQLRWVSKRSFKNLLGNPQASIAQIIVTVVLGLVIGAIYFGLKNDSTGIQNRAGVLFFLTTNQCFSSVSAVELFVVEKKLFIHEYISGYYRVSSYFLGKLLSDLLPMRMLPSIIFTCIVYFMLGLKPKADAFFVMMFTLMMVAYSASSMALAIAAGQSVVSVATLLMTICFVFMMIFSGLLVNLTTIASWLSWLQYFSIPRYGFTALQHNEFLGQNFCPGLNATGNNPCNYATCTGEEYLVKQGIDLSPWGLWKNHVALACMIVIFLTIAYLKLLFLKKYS
Source text: as §1

[11] = tested on: MDCK-MDR1; assay: Cytotoxicity, MTT assay; assay type: cell-based; details: 100 microM
Method: Determination of cell growth was performed using the MTT assay at 24 and 48 h. On day 1, 30,000 cells/well were seeded into96-well plates in a volume of 100 μL. On day 2, the various drugs concentration (0.1-100 μM) were added. In all the experiments, the various drug-solvents (ethanol, DMSO) were added in each control to evaluate a possible solvent cytotoxicity. After the established incubation time with compound of Formula 1a, MTT(0.5 mg/mL) was added to each well, and after 3 h incubation at 37° C., the supernatant was removed.

[12] = tested on: P-gp; assay: In vivo bio-distribution, microPET/CT brain uptake; parameters: species or system mice
Method: A set of wild type mice subjects were injected with compound of formula 1b (i.e. [^18F]-labeled compound of formula 1a). Immediately after injection of the tracer compound, scanning was performed on the subject using a microPET/CT system. The study was conducted in deep anaesthesia (oxygen/1.5-2 isoflurane w/o drug-induction) and the animals were treated by adhering to regulatory, ethical and Animal Welfare guidelines subsequent to obtaining approvals. […] The extraction remained constant for the duration of the study and was indicative of a possible selective binding to brain structures.

[13] = target: T1, P-gp; parameters: expressed in transfected cells; host or cells: MDCK-P-gp (MDCK cells stably overexpressing human P-gp); details: literature value; read-out: EC50 as reported in Kazunori Kawamura, et al.; cited from earlier work

T1 sequence (P08183 whole entry): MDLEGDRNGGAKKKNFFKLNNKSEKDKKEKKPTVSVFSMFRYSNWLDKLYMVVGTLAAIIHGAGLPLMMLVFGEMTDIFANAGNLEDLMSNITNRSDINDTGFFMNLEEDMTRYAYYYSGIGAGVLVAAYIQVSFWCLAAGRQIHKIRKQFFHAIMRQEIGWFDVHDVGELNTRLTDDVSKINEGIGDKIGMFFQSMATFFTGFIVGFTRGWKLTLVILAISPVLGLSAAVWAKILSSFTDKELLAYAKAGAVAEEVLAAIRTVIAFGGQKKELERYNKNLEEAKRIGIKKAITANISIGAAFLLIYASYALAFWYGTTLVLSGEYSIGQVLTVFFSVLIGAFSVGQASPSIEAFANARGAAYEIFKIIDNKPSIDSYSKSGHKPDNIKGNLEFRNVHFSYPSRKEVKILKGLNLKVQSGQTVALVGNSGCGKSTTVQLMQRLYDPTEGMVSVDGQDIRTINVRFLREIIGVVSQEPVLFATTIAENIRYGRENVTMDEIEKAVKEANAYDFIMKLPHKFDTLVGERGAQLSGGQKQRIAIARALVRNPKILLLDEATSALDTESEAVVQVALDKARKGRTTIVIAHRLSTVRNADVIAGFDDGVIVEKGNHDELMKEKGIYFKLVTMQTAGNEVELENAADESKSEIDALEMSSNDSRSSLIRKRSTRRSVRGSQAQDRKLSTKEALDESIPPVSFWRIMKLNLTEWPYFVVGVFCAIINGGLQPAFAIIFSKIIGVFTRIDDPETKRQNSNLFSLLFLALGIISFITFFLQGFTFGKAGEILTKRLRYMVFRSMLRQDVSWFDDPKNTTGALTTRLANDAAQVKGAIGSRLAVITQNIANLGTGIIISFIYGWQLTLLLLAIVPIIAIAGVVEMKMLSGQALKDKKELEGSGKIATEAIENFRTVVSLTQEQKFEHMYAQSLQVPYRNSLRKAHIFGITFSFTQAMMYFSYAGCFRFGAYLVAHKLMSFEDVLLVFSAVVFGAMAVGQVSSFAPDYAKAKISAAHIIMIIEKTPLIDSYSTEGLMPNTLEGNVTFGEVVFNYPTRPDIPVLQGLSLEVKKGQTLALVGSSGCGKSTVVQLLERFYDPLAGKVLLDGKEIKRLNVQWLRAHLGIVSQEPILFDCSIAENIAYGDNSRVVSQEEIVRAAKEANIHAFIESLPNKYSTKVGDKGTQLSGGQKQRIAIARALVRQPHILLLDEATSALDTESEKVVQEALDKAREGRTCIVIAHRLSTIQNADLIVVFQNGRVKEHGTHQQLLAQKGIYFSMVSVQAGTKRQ
T2 sequence (P33527 whole entry): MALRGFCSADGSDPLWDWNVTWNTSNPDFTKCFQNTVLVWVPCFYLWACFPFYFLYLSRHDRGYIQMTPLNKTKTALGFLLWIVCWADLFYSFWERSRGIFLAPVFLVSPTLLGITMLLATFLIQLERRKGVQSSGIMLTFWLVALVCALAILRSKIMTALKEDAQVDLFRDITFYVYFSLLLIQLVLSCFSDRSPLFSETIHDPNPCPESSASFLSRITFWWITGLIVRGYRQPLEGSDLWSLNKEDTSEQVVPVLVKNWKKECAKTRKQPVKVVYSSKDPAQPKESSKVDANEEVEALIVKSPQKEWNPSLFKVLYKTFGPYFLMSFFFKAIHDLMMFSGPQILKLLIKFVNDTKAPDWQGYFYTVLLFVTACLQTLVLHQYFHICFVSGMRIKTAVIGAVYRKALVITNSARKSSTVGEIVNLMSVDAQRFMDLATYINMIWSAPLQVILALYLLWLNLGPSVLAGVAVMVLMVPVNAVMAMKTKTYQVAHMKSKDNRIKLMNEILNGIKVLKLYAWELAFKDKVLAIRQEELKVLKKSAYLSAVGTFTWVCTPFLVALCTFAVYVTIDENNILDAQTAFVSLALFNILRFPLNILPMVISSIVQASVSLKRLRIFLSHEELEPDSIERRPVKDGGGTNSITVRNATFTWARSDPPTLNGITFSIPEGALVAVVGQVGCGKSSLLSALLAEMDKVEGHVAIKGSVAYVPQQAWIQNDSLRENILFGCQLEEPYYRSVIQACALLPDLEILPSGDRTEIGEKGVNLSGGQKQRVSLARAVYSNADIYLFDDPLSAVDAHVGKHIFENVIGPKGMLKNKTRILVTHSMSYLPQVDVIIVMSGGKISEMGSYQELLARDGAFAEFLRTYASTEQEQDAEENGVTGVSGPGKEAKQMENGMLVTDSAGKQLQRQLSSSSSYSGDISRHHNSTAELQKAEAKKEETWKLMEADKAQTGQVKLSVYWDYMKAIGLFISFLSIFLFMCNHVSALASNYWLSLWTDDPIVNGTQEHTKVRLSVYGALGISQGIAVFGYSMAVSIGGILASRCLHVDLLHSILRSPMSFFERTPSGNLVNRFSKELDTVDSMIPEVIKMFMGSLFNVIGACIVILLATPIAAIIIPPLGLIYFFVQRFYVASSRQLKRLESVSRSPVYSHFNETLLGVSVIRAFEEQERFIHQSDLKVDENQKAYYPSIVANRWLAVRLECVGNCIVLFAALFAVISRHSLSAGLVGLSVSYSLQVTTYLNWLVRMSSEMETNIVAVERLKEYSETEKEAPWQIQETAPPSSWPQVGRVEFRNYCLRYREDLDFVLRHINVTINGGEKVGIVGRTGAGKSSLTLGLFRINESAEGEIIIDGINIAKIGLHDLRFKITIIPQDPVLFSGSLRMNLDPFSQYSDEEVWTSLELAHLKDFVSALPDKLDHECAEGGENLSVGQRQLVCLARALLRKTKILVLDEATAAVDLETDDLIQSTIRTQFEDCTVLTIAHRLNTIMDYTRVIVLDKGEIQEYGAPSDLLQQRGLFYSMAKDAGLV

SMILES	P-gp EC50 [2]	fraction unbound [4]	Kd [4] [nM]	EC50 [7] [nM]	ATP-ase cell depletion [9] [%]	EC50 [10] [nM]	Cytotoxicity (MTT) ([11]; 24 h) [%]	Cytotoxicity (MTT) ([11]; 48 h) [%]	also measured
COc1cc(NC(=O)c2cnc3ccccc3c2)c(C(=O)Nc2ccc(CCN3CCc4cc(OCCF)c(OC)cc4C3)cc2)cc1OC [Formula 1a, N-(2-((4-(2-(6-(2-fluoroethoxy)-7-methoxy-3,4-dihydroisoquinolin-2(1H)-yl)ethyl)phenyl)carbamoyl)-4,5-dimethoxyphenyl)quinoline-3-carboxamide]	8,0±0.2 nM	0.539	717000	> 500	20	> 500	5	15	efflux ratio at 120 min [1]: 16 ± 0.7; EC50 [2]: 8 nM; % remaining at 30 min [3]: 88%; Kd [5]: 717000 nM; Unchanged form (%) ([6]; after 30 min): 91%; Unchanged form (%) ([6]; after 60 min): 85%; Stability in serosal compartment ([8]; after 60 min): 83%; Stability in serosal compartment ([8]; after 120 min): 75%; Crossing into the mucosal compartment ([8]; inserted in serosal compartment, 120 mins): unable to cross into the mucosal compartment
COc1cc(NC(=O)c2cnc3ccccc3c2)c(C(=O)Nc2ccc(CCN3CCc4cc(OCC[18F])c(OC)cc4C3)cc2)cc1OC [Formula 1b]	–	–	–	–	–	–	–	–	Brain uptake (microPET) ([12]; P-gp knock-out mice (MDR 1a/b −/−)): same reduction of uptake at brain level; Brain uptake (microPET) ([12]; wild type mice, co-injection of tariquidar): strongly reduced; Brain uptake (microPET) ([12]; wild type mice, tracer alone): binding of radiolabeled compound of formula 1b at brain level
COc1cc2c(cc1OC)CN(CCc1ccc(NC(=O)c3cc(OC)c(OC)cc3NC(=O)c3cnc4ccccc4c3)cc1)CC2 [Tariquidar, reference compound]	4,0±0.2 nM	0.095	64700	> 500	30	> 80	8	19	EC50 [13]: 24 nM
